Values of other authors as cited in publication PMC10879279 (Frontiers in Behavioral Neuroscience, 2024).

Key:
[1] = test system: ADHD patients; settings: ref Bodey, 2011; cited from earlier work
Text: To sum up, the development of new medications for disorders with an excessive impulsivity as a major component is of high interest for both academy and industry. Addictions, including substance use disorder and gambling, faces the unmet need for novel medicines ([Rash et al., 2016]). In case of ADHD there is also a need for new medications with novel mechanisms of action since currently approved drugs show a non-response or lack efficacy in a significant number of patients ([Mechler et al., 2022]). Routinely used stimulant methylphenidate is efficient in up to 70% of cases ([Bodey, 2011]), and ...

[2] = test system: human; settings: ref Shiels et al., 2009; cited from earlier work
Text: (§1) Delay discounting tasks are also used to assess impulsive behavior in human studies, giving an insight into causal mechanism of addictions such as substance abuse and gambling ([Reynolds, 2006]; [de Wit, 2009]; [Hodgins and Holub, 2015]), and ADHD ([Barkley et al., 2001]; [Scheres et al., 2008]; [Shiels et al., 2009]). Impulsivity in the human and rodent delay discounting task derives form the similar neural substrates: lower D2/3 receptor availability in ventral striatum of rats and pathological gamblers, individuals with methamphetamine dependence, and alcohol use disorder ([Voon and Dalley, ...

[3] = test system: animal models; settings: ref Wooters and Bardo, 2011; cited from earlier work
Text: as §1

## COC(=O)C(c1ccccc1)C1CCCCN1 (stereo not drawn) [methylphenidate]
[1]
  efficient in percent of cases: up to 70%
[2]
  discounting of delayed rewards (in words): reduced discounting of delayed rewards
[3]
  discounting of delayed rewards (in words): reduced discounting of delayed rewards
